Assay results reported in patent publication US20250134907A1, “FUSED DIAZEPINES AS AGONISTS OF THE INSULIN-LIKE 3 (INSL3) PEPTIDE RECEPTOR RXFP2 AND METHODS OF USE THEREOF” (The United States of America,as represented by the …, priority 2022, published 2025).

Target: T1, RXFP2 (Homo sapiens, UniProt Q8WXD0)
T1 construct: expressed in transfected cells
Assay: HTRF cAMP assay in HEK293T cells stably expressing RXFP2 (HEK-RXFP2)
Format: cell-based
Conditions: for % EFF vs. 100 nM INSL3 (c): normalized to 100 nM INSL3 cAMP response; for % EFF vs. 1 nM INSL3 (b): normalized to 1 nM INSL3 cAMP response
Protocol: Compound efficacy and EC50 were determined by measuring cAMP induction in vitro. HEK293T cells stably expressing RXFP2 (HEK-RXFP2) produce cAMP when RXFP2 is activated, which can be measured in an antibody-based immunoassay utilizing a fluorescent readout (cAMP Gs HiRange Kit, PerkinElmer, Waltham, MA). HEK-RXFP2 cells were seeded in 96-well plates in serum-free DMEM and incubated overnight at 37° C., 5% CO2. Plates were then treated with a compound titration up to 25 μM or INSL3 control, in the presence of isobutylmethylxanthine phosphodiesterase inhibitor (IBMX) at 200 μM to amplify the cAMP signal, for 1 hour at 37° C., 5% CO2 before being processed as per kit instructions. Table 7 lists the efficacy and EC50 of compounds tested under different experimental conditions. […] In condition (a), 20,000 cells were seeded per well in the 96 well plate, and efficacy was determined by normalizing the maximum compound cAMP response to the 1 nM INSL3 cAMP response (% Efficacy 1 nM INSL3 (a)). In condition (b), 10,000 cells were seeded per well, and compound response was normalized to the 1 nM INSL3 cAMP response (% Efficacy 1 nM INSL3 (b)). In condition (c), 7,500 cells were seeded per well, compound response was normalized to the 100 nM INSL3 cAMP response, and IBMX was omitted (% Efficacy 100 nM INSL3 (c)). A range is given when compounds were tested multiple times. Where compounds were tested under multiple experimental conditions, the EC50 listed for the corresponding condition is marked (a) through (c) to correlate. When EC50 could not be calculated from the dose-response curve, EC50 is listed as not determined (ND).

[1] = condition (c): 7,500 cells/well, IBMX omitted
[2] = condition (b): 10,000 cells/well, IBMX 200 μM

T1 sequence (Q8WXD0 whole entry): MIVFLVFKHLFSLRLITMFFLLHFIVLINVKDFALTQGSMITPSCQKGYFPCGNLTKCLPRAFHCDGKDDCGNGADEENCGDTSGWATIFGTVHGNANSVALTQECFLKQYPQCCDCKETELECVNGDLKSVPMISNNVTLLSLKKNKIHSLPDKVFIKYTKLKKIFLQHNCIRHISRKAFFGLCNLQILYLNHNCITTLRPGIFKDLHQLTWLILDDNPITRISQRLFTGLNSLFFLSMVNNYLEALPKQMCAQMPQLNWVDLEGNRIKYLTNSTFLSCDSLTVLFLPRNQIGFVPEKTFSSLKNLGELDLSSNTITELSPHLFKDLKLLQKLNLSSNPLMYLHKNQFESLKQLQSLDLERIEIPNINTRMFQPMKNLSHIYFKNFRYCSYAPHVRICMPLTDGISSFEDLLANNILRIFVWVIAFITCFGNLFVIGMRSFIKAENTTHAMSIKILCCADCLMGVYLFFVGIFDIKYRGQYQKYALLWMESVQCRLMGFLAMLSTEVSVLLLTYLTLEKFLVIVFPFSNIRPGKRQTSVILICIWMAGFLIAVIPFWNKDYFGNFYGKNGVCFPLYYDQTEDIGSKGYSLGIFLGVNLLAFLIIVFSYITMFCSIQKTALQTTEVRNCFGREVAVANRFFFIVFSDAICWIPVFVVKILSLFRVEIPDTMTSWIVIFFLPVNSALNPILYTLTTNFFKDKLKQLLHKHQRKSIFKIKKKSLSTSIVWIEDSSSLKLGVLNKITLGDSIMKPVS

Structure (SMILES)	% EFF vs. 100 nM INSL3 (c) [1] [%]	EC50 [2] [nM]	% EFF vs. 1 nM INSL3 (b) [2]	further results
O=C1Nc2cnc(-c3cc(C(F)(F)F)cc(C(F)(F)F)c3)cc2C(=O)N2CCN(C(=O)COc3ccc(OC(F)(F)F)cc3I)C[C@@H]12 (single isomer, unassigned) [Example 196]	109.23	–	–	EC50 [1]: 984 nM
Cc1cc(OC(F)F)ccc1OCC(=O)N1CCN2C(=O)c3cc(-c4cccc(C(F)(F)F)c4)ccc3NC(=O)[C@@H]2C1 [Example 166, (S)-2-(2-(4-(difluoromethoxy)-2-methylphenoxy)acetyl)-8-(3-(trifluoromethyl)phenyl)-1,3,4,12a-tetrahydrobenzo[e]pyrazino[1,2-a][1,4]diazepine-6,12 (2H, 11H)-dione]	–	236	132.67%	–
O=C1Nc2ccc(-c3cc(F)cc(C(F)(F)F)c3)cc2C(=O)N2CCN(C(=O)COc3ccc(C(F)(F)F)cc3Cl)C[C@@H]12 [Example 142, (S)-2-(2-(2-chloro-4-(trifluoromethyl)phenoxy)acetyl)-8-(3-fluoro-5-(trifluoromethyl)phenyl)-1,3,4,12a-tetrahydrobenzo[e]pyrazino[1,2-a][1,4]diazepine-6,12 (2H, 11H)-dione]	–	48	80.32%	–
Cc1ccc(C(F)(F)F)cc1-c1ccc2c(c1)C(=O)N1CCN(C(=O)COc3ccc(OC(F)(F)F)cc3Cl)C[C@H]1C(=O)N2 [Example 136, (S)-2-(2-(2-Chloro-4-(trifluoromethoxy)phenoxy)acetyl)-8-(2-methyl-5-(trifluoromethyl)phenyl)-1,3,4,12a-tetrahydrobenzo[e]pyrazino[1,2-a][1,4]diazepine-6,12 (2H, 11H)-dione]	–	67 to 89.4	92.5-107.57%	–
O=C1Nc2ccc(-c3cc(C(F)(F)F)cc(C(F)(F)F)c3)nc2C(=O)N2CCN(C(=O)COc3ccc(OC(F)(F)F)cc3I)C[C@@H]12 (single isomer, unassigned) [Example 206]	60.89	–	–	EC50 [1]: 563 nM
O=C1Nc2ccc(-c3cccc(C(F)(F)F)c3)cc2C(=O)N2CCN(C(=O)COc3ccccc3)C[C@@H]12 [Example 112, (S)-2-(2-phenoxyacetyl)-8-(3-(trifluoromethyl)phenyl)-1,3,4,12a-tetrahydrobenzo[e]pyrazino[1,2-a][1,4]diazepine-6,12 (2H, 11H)-dione]	–	–	–	% EFF vs. 1 nM INSL3 (a) (condition (a): 20,000 cells/well, IBMX 200 μM, maximum cAMP response normalized to 1 nM INSL3 response): 12.93%
Cc1cc(OC(F)(F)F)ccc1OCC(=O)N1CCN2C(=O)c3cc(-c4cc(Cl)cc(C(F)(F)F)c4)ccc3NC(=O)[C@@H]2C1 [Example 164, (S)-8-(3-chloro-5-(trifluoromethyl)phenyl)-2-(2-(2-methyl-4-(trifluoromethoxy)phenoxy)acetyl)-1,3,4,12a-tetrahydrobenzo[e]pyrazino[1,2-a][1,4]diazepine-6,12 (2H, 11H)-dione]	–	–	126.02%	–
O=C1Nc2ccc(-c3cc(C(F)(F)F)ccc3F)cc2C(=O)N2CCN(C(=O)COc3ccc(OC(F)(F)F)cc3Cl)CC12 (racemic) [Example 104, 2-(2-(2-chloro-4-(trifluoromethoxy)phenoxy)acetyl)-8-(2-fluoro-5-(trifluoromethyl)phenyl)-1,3,4,12a-tetrahydrobenzo[e]pyrazino[1,2-a][1,4]diazepine-6,12 (2H, 11H)-dione]	–	17.7	67.7%	–
O=C1Nc2ccc(-c3cccc(C(F)(F)F)c3)cc2C(=O)N2CCN(C(=O)COc3ccc(OC(F)(F)F)cc3Cl)C[C@@H]12 [Example 117, (S)-2-(2-(2-chloro-4-(trifluoromethoxy)phenoxy)acetyl)-8-(3-(trifluoromethyl)phenyl)-1,3,4,12a-tetrahydrobenzo[e]pyrazino[1,2-a][1,4]diazepine-6,12 (2H, 11H)-dione]	–	15.6	77.84%	–
O=C1Nc2ccc(-c3cccc(C(F)(F)F)c3)cc2C(=O)N2CCN(C(=O)COc3ccc(C(F)(F)F)c(F)c3F)C[C@@H]12 [Example 146, (S)-2-(2-(2,3-difluoro-4-(trifluoromethyl)phenoxy)acetyl)-8-(3-(trifluoromethyl)phenyl)-1,3,4,12a-tetrahydrobenzo[e]pyrazino[1,2-a][1,4]diazepine-6,12 (2H, 11H)-dione]	–	–	47.43%	–
O=C1Nc2ccc(-c3cccc(C(F)F)c3)cc2C(=O)N2CCN(C(=O)COc3ccc(OC(F)(F)F)cc3Cl)C[C@@H]12 [Example 179, (S)-2-(2-(2-chloro-4-(trifluoromethoxy)phenoxy)acetyl)-8-(3-(difluoromethyl)phenyl)-1,3,4,12a-tetrahydrobenzo[e]pyrazino[1,2-a][1,4]diazepine-6,12 (2H, 11H)-dione]	28.25	–	–	–
O=C1Nc2ncc(-c3cc(C(F)(F)F)cc(C(F)(F)F)c3)cc2C(=O)N2CCN(C(=O)COc3ccc(OC(F)(F)F)cc3I)C[C@@H]12 (single isomer, unassigned) [Example 202]	102.23	–	–	EC50 [1]: 40.7 nM
Cc1cc(OC(F)F)ccc1OCC(=O)N1CCN2C(=O)c3cc(-c4cc(O)cc(C(F)(F)F)c4)ccc3NC(=O)[C@@H]2C1 [Example 172]	–	–	70.66%	–
Cc1cc(-c2ccc3c(c2)C(=O)N2CCN(C(=O)COc4ccc(OC(F)(F)F)cc4Cl)C[C@H]2C(=O)N3)cc(C(F)(F)F)c1 [Example 150, (S)-2-(2-(2-chloro-4-(trifluoromethoxy)phenoxy)acetyl)-8-(3-methyl-5-(trifluoromethyl)phenyl)-1,3,4,12a-tetrahydrobenzo[e]pyrazino[1,2-a][1,4]diazepine-6,12 (2H, 11H)-dione]	–	22.2	103.32%	–
Cc1cc(OC(F)F)ccc1OCC(=O)N1CCN2C(=O)c3cc(-c4cccc(C(F)F)c4)ccc3NC(=O)[C@@H]2C1 [Example 177, (S)-2-(2-(4-(difluoromethoxy)-2-methylphenoxy)acetyl)-8-(3-(difluoromethyl)phenyl)-1,3,4,12a-tetrahydrobenzo[e]pyrazino[1,2-a][1,4]diazepine-6,12 (2H, 11H)-dione]	17.49	–	–	–
